Measured values: patent US20260285850A1, “SUBSTITUTED OXAZOLIDINONES AND IMIDAZOLINONES AS HERBICIDES” (FMC CORPORATION, priority 2023, published 2026)

Legend:
Format in all cases: in vivo
[1] = test system: green foxtail (Setaria viridis); experiment: Test A preemergence soil spray, visual injury rating 0-100; settings: 10 days, 0 = no effect, 100 = complete control
In short: (§1)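 Compounds formulated in a non-phytotoxic solvent with surfactant are sprayed onto soil of freshly planted loam-sand pots ahead of emergence, or onto emerged plants 2-10 cm tall. After a 10-day greenhouse period, each species is scored visually for injury against untreated controls.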

[2] = test system: palmer (palmer amaranth, palmer pigweed, Amaranthus palmeri); experiment: as above; settings: 10 days, 0 = no effect, 100 = complete control
In short: as §1

soybean (Glycine max) [3] = experiment: as above; settings: 10 days, 0 = no effect, 100 = complete control
In short: as §1

[4] = test system: ragweed (common ragweed, Ambrosia artemisiifolia); experiment: as above; settings: 10 days, 0 = no effect, 100 = complete control
In short: as §1

[5] = test system: blackgrass (Alopecurus myosuroides); experiment: as above; settings: 10 days, 0 = no effect, 100 = complete control
In short: as §1

[6] = test system: ryegrass, Italian (italian ryegrass, Lolium multiflorum); experiment: as above; settings: 10 days, 0 = no effect, 100 = complete control
In short: as §1

[7] = test system: barnyardgrass (Echinochloa crus-galli); experiment: as above; settings: 10 days, 0 = no effect, 100 = complete control
In short: as §1

[8] = test system: oat, wild (wild oat, Avena fatua); experiment: as above; settings: 10 days, 0 = no effect, 100 = complete control
In short: as §1

kochia (Bassia scoparia) [9] = experiment: as above; settings: 10 days, 0 = no effect, 100 = complete control
In short: as §1

[10] = test system: wheat (Triticum aestivum); experiment: as above; settings: 10 days, 0 = no effect, 100 = complete control
In short: as §1

corn (Zea mays) [11] = experiment: as above; settings: 10 days, 0 = no effect, 100 = complete control
In short: as §1

[12] = test system: green foxtail (Setaria viridis); experiment: Test A postemergence application, visual injury rating 0-100; settings: 10 days
In short: as §1

[13] = test system: palmer (palmer amaranth, palmer pigweed, Amaranthus palmeri); experiment: as above; settings: 10 days
In short: as §1

soybean (Glycine max) [14] = experiment: as above; settings: 10 days
In short: as §1

[15] = test system: ragweed (common ragweed, Ambrosia artemisiifolia); experiment: as above; settings: 10 days
In short: as §1

[16] = test system: blackgrass (Alopecurus myosuroides); experiment: as above; settings: 10 days
In short: as §1

[17] = test system: ryegrass, Italian (italian ryegrass, Lolium multiflorum); experiment: as above; settings: 10 days
In short: as §1

[18] = test system: barnyardgrass (Echinochloa crus-galli); experiment: as above; settings: 10 days
In short: as §1

[19] = test system: oat, wild (wild oat, Avena fatua); experiment: as above; settings: 10 days
In short: as §1

kochia (Bassia scoparia) [20] = experiment: as above; settings: 10 days
In short: as §1

[21] = test system: horseweed (Erigeron canadensis); experiment: as above; settings: 10 days
In short: as §1

[22] = test system: wheat (Triticum aestivum); experiment: as above; settings: 10 days
In short: as §1

corn (Zea mays) [23] = experiment: as above; settings: 10 days
In short: as §1

[24] = test system: galium (catchweed bedstraw, Galium aparine); experiment: as above; settings: 10 days
In short: as §1

rice (Oryza sativa) = experiment: Test B flooded paddy test, visual plant response rating 0-100; settings: 250 g ai/ha, Flood, applied to paddy water, evaluated after 13 days
In short: (§2)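 2-leaf plants; flood 3 cm over soil; compound dosed into paddy water; depth kept constant; greenhouse 13 d; visual scoring vs controls. Dash = no result.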

[25] = test system: ducksalad (Heteranthera limosa); experiment: as above; settings: 250 g ai/ha, Flood, applied to paddy water, evaluated after 13 days
In short: as §2

[26] = test system: barnyardgrass (Echinochloa crusgalli); experiment: as above; settings: 250 g ai/ha, Flood, applied to paddy water, evaluated after 13 days
In short: as §2

[27] = test system: sedge, umbrella (small-flower umbrella sedge, Cyperus difformis); experiment: as above; settings: 250 g ai/ha, Flood, applied to paddy water, evaluated after 13 days
In short: as §2

[28] = 31 g ai/ha, postemergence, 0 = no effect, 100 = complete control
[29] = Postemergence, 125 g ai/ha, 0 is no effect, 100 is complete control

CC(C)COC(=O)C1=CCC(NC(=O)C2(C)CN(c3cc(F)cc(F)c3)C(=O)O2)C1 (stereo not shown) [Compound 16]
100: Foxtail, Green plant response rating (0 to 100 scale) ([1]; 125 g ai/ha) | Blackgrass plant response rating (0 to 100 scale) [16, 29] | Barnyardgrass plant response rating (0-100) [18, 28] | Barnyardgrass plant response rating (0 to 100 scale) [18, 29] | Corn plant response rating (0 to 100 scale) (corn (Zea mays) [23]; [29])
90: Ryegrass, Italian plant response rating (0 to 100 scale) ([6]; 125 g ai/ha) | Barnyardgrass plant response rating (0 to 100 scale) ([7]; 125 g ai/ha) | Foxtail, Green plant response rating (0-100) [12, 28] | Foxtail, Green plant response rating (0 to 100 scale) [12, 29] | Blackgrass plant response rating (0-100) [16, 28] | Ryegrass, Italian plant response rating (0 to 100 scale) [17, 29] | Oat, Wild plant response rating (0 to 100 scale) [19, 29] | Wheat plant response rating (0 to 100 scale) [22, 29] | Corn plant response rating (0-100) (corn (Zea mays) [23]; [28]) | Galium plant response rating (0-100) [24, 28] | Galium plant response rating (0 to 100 scale) [24, 29]
60: Soybean plant response rating (0-100) (soybean (Glycine max) [14]; [28]) | Soybean plant response rating (0 to 100 scale) (soybean (Glycine max) [14]; [29]) | Oat, Wild plant response rating (0-100) [19, 28]
20: Ragweed plant response rating (0 to 100 scale) ([4]; 125 g ai/ha) | Corn plant response rating (0-100) (corn (Zea mays) [11]; 31 g ai/ha) | Amaranth, Palmer plant response rating (0-100) [13, 28] | Horseweed plant response rating (0 to 100 scale) [21, 29]
65: Plant response rating, Rice (0 to 100 scale, 0 is no effect and 100 is complete control) (rice (Oryza sativa)) | Plant response rating, Barnyardgrass (0 to 100 scale, 0 is no effect and 100 is complete control) [26] | Plant response rating, Sedge, Umbrella (0 to 100 scale, 0 is no effect and 100 is complete control) [27]
50: Oat, Wild plant response rating (0 to 100 scale) ([8]; 125 g ai/ha) | Wheat plant response rating (0-100) ([10]; 31 g ai/ha) | Ragweed plant response rating (0 to 100 scale) [15, 29]
80: Amaranth, Palmer plant response rating (0 to 100 scale) ([2]; 125 g ai/ha) | Wheat plant response rating (0 to 100 scale) ([10]; 125 g ai/ha) | Wheat plant response rating (0-100) [22, 28]
40: Blackgrass plant response rating (0 to 100 scale) ([5]; 125 g ai/ha) | Ryegrass, Italian plant response rating (0-100) ([6]; 31 g ai/ha) | Kochia plant response rating (0 to 100 scale) (kochia (Bassia scoparia) [9]; 125 g ai/ha) | Ragweed plant response rating (0-100) [15, 28]
70: Corn plant response rating (0 to 100 scale) (corn (Zea mays) [11]; 125 g ai/ha) | Amaranth, Palmer / Pigweed, Palmer plant response rating (0 to 100 scale) [13, 29] | Ryegrass, Italian plant response rating (0-100) [17, 28] | Kochia plant response rating (0-100) (kochia (Bassia scoparia) [20]; [28]) | Kochia plant response rating (0 to 100 scale) (kochia (Bassia scoparia) [20]; [29]) | Plant response rating, Ducksalad (0 to 100 scale, 0 is no effect and 100 is complete control) [25]
0: Foxtail, Green plant response rating (0-100) ([1]; 31 g ai/ha) | Amaranth, Palmer plant response rating (0-100) ([2]; 31 g ai/ha) | Soybean plant response rating (0-100) (soybean (Glycine max) [3]; 31 g ai/ha) | Soybean plant response rating (0 to 100 scale) (soybean (Glycine max) [3]; 125 g ai/ha) | Ragweed plant response rating (0-100) ([4]; 31 g ai/ha) | Blackgrass plant response rating (0-100) ([5]; 31 g ai/ha) | Barnyardgrass plant response rating (0-100) ([7]; 31 g ai/ha) | Oat, Wild plant response rating (0-100) ([8]; 31 g ai/ha) | Kochia plant response rating (0-100) (kochia (Bassia scoparia) [9]; 31 g ai/ha) | Horseweed plant response rating (0-100) [21, 28]
